Test [1] concerns the target PDK1 (Homo sapiens, UniProt O15530). Briefly: Biochemical kinase profiling (Life Technologies). As for the experimental part:
(§1) Purified PI3K Class I Lipid Kinase, including p110α/p85α, p110β/p85α, p110γ, and p110δ/p85α (Promega, Madison, WI, USA), was respectively incubated with B591 for 30 min at room temperature. The activity of PI3K was evaluated using a PI3-Kinase Activity ELISA kit (K-1000s, Echelon, Salt Lake City, UT, USA) according to the manufacture’s instructions. The assay is a competitive ELISA in which the signal is inversely proportional to the amount of PI(3,4,5)P3 produced. After the PI3-Kinase reactions are complete, reaction products are first mixed and incubated with a PI(3,4,5)P3 detector protein, then added to the PI(3,4,5)P3-coated microplate for competitive binding. A peroxidase-linked secondary detector and colorimetric detection is used to detect PI(3,4,5)P3 detector binding to the plate. The colorimetric signal is inversely proportional to the amount of PI(3,4,5)P3 produced by PI3-Kinase. The absorbance was measured at 450 nm with a Multilabel Reader (PerkinElmer, Waltham, MA, USA). ATP competition assays were executed with varying concentrations of ATP, and five concentrations of ATP were 5 μM, 25 μM, 50 μM, 100 μM, and 200 μM respectively. The IC50 values for inhibition of PI3Kβ by B591 were determined at indicated concentrations of ATP. In addition, B591 selectivity was tested against 39 kinases at Life Technologies.

The target of test [2] is T1, SRC (Homo sapiens, UniProt P12931).
T1 construct: purchased Life Technologies
Briefly: Biochemical kinase profiling (Life Technologies). The procedure: as §1

The target in test [3] is T2, PDGFRB (PDGFR beta) (Homo sapiens, UniProt P09619).
T2 construct: purchased Life Technologies
T2 sequence (P09619 33-1106): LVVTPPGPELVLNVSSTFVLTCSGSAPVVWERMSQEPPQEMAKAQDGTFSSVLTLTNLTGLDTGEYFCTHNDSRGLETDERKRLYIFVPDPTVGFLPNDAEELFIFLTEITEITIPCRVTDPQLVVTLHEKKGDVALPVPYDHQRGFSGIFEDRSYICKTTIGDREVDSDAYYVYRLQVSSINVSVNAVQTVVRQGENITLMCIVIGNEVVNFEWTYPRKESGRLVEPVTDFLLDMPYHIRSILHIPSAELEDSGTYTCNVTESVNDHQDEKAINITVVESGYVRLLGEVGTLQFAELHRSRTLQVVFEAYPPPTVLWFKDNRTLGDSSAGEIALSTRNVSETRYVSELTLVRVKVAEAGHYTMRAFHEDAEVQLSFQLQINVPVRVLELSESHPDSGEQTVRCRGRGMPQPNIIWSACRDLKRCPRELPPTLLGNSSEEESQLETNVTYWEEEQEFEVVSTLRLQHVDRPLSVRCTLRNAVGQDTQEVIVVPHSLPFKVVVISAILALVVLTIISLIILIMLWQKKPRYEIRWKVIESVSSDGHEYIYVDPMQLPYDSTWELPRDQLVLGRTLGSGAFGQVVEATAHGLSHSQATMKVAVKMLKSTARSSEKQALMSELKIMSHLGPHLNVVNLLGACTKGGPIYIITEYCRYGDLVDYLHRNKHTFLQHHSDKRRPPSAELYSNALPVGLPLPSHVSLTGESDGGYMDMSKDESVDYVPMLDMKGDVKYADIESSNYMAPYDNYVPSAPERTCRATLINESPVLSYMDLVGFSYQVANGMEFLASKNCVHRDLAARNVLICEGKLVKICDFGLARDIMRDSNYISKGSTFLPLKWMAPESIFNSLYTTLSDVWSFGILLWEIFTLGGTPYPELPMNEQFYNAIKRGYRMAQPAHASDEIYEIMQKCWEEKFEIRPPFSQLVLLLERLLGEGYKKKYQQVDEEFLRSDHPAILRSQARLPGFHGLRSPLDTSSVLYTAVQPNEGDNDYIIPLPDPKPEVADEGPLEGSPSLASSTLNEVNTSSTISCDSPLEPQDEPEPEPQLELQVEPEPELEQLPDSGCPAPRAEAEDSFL
Briefly: Biochemical kinase profiling (Life Technologies). As for the experimental part: as §1

Test [4] deals with PRKCQ (PKC theta) (Homo sapiens, UniProt Q04759). Briefly: Biochemical kinase profiling (Life Technologies). As for the experimental part:
as §1

Test [5] has as its target T3, FGFR4 (Homo sapiens, UniProt P22455).
T3 construct: purchased Life Technologies
The test can be described thus: Biochemical kinase profiling (Life Technologies). The procedure:
as §1

In test [6] the target is T4, EPHB1 (Homo sapiens, UniProt P54762).
T4 construct: purchased Life Technologies
The test can be described thus: Biochemical kinase profiling (Life Technologies). The procedure: as §1

Test [7] concerns the target GSK3B (GSK3 beta) (Homo sapiens, UniProt P49841). Briefly: Biochemical kinase profiling (Life Technologies). As for the experimental part:
as §1

For test [8], the target named is T5, EGFR (ErbB1) (Homo sapiens, UniProt P00533).
T5 construct: purchased Life Technologies
The test can be described thus: Biochemical kinase profiling (Life Technologies). As for the experimental part: as §1

Test [9] has as its target FYN (Homo sapiens, UniProt P06241). The test can be described thus: Biochemical kinase profiling (Life Technologies). As for the experimental part: as §1
Test [10] addresses FRAP1 (mTOR) (Homo sapiens, UniProt P42345). Briefly: Biochemical kinase profiling (Life Technologies). The procedure:
as §1

Test [11] addresses T6, EPHA2 (Homo sapiens, UniProt P29317).
T6 construct: purchased Life Technologies
Briefly: Biochemical kinase profiling (Life Technologies). As for the experimental part:
as §1

Test [12] addresses AKT1 (PKB alpha) (Homo sapiens, UniProt P31749). Briefly: Biochemical kinase profiling (Life Technologies). As for the experimental part: as §1
In test [13] the target is DNA-PK (Homo sapiens, UniProt P78527). The test can be described thus: Biochemical kinase profiling (Life Technologies). The procedure:
as §1

In test [14] the target is AKT2 (PKB beta) (Homo sapiens, UniProt P31751). The test can be described thus: Biochemical kinase profiling (Life Technologies). The procedure: as §1
AKT2 (PKB beta), sequence (P31751 whole entry): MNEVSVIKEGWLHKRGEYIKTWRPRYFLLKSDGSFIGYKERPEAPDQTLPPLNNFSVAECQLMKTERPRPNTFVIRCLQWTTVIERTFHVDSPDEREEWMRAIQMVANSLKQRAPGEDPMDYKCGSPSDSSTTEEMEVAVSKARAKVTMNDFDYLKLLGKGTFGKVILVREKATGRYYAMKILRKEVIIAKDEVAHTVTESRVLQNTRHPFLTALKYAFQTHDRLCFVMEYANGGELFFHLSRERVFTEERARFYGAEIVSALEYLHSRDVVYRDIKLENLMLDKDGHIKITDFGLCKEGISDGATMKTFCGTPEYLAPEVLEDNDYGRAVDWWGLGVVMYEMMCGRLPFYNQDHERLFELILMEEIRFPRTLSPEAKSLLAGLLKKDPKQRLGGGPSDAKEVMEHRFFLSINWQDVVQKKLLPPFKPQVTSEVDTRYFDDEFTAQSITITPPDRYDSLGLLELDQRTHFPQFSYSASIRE
The target in test [15] is PTK2 (FAK) (Homo sapiens, UniProt Q05397). The test can be described thus: Biochemical kinase profiling (Life Technologies). As for the experimental part: as §1
For test [16], the target named is LYN B (Homo sapiens, UniProt P07948). The test can be described thus: Biochemical kinase profiling (Life Technologies). The procedure:
as §1

Test [17] addresses GSK3A (GSK3 alpha) (Homo sapiens, UniProt P49840). Briefly: Biochemical kinase profiling (Life Technologies). As for the experimental part: as §1
For test [18], the target named is T7, ERBB2 (HER2) (Homo sapiens, UniProt P04626).
T7 construct: purchased Life Technologies
The test can be described thus: Biochemical kinase profiling (Life Technologies). The procedure: as §1

The test system of test [19] is SUM-159PT, MCF7 and MDA-MB-231 mammospheres. The test can be described thus: Mammosphere formation assay. Type of test: cell-based, human. The note with it: treated 5 days. As for the experimental part: Fig. 4 B591 inhibits CSCs and tumorigenesis. a B591 inhibited mammosphere-formation of SUM-159PT, MCF7, and MDA-MB-231 cells. Mammospheres were cultured as described in Materials and methods section. […] The mammospheres were subsequently passaged for another two generations and each generation of the mammospheres were cultured for 5 days without B591 and then counted under a phase-contrast microscopy. The relative mammosphere-formation ability is shown as percentage, and data represent mean ± SD from three independent experiments. c, d Representative flow cytometry plots show the effect of B591 on CD44^high/CD24^low (c) and ALDH^high (d) breast CSCs population from SUM-159PT cells. e Quantification of flow cytometry analysis of CD44^high/CD24^low and ALDH^high breast CSCs population from SUM-159PT cells. […] The live cells were collected and counted, the same amount of control cells and B591-treated cells were then incubated into the fourth left and right mammary fat pad of mice, respectively, according the indicated number for each group. Tumors were inspected 3 months later, and the tumor initiating frequency (TIF) was calculated with ELDA software. […]
In mammosphere formation assay, mammospheres were cultured in the presence of B591 for 5 days as described above and then were counted and imaged under a phase-contrast microscopy (Nikon, Japan).

Molecules are shown by their SMILES.

T3 sequence (P22455 22-802): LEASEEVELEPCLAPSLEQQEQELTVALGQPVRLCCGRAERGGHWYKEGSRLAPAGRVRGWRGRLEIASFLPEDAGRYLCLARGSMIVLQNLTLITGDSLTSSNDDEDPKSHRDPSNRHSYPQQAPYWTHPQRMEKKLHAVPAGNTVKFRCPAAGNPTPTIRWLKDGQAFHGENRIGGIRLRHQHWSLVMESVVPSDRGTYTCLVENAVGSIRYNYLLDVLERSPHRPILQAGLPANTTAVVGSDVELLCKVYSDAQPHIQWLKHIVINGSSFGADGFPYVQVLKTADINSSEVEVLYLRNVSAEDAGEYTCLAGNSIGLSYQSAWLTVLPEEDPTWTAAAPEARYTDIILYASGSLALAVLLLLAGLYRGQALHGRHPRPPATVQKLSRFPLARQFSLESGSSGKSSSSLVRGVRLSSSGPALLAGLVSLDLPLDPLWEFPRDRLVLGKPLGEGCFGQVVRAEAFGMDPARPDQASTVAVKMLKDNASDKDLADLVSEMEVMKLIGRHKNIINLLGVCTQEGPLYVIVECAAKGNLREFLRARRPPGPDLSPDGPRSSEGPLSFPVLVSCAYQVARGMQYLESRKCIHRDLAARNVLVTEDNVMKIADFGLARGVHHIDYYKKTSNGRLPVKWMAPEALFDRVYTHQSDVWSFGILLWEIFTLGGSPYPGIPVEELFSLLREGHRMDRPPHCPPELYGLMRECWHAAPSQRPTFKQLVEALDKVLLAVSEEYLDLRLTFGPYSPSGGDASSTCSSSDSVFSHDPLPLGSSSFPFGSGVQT
LYN B, sequence (P07948 1-491 isoform P07948-2): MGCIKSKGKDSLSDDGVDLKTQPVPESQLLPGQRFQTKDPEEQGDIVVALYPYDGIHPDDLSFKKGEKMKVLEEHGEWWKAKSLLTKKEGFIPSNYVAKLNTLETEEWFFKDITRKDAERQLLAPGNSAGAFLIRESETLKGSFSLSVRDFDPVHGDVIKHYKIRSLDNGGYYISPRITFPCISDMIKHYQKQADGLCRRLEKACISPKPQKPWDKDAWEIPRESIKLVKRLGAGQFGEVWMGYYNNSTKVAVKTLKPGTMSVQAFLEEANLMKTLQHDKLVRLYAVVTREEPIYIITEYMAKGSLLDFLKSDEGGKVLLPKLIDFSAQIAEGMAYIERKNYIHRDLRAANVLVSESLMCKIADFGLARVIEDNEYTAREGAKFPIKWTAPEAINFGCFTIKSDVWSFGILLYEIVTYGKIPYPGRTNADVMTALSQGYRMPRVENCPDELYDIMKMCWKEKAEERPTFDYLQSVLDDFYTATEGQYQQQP
PDK1, sequence (O15530 whole entry): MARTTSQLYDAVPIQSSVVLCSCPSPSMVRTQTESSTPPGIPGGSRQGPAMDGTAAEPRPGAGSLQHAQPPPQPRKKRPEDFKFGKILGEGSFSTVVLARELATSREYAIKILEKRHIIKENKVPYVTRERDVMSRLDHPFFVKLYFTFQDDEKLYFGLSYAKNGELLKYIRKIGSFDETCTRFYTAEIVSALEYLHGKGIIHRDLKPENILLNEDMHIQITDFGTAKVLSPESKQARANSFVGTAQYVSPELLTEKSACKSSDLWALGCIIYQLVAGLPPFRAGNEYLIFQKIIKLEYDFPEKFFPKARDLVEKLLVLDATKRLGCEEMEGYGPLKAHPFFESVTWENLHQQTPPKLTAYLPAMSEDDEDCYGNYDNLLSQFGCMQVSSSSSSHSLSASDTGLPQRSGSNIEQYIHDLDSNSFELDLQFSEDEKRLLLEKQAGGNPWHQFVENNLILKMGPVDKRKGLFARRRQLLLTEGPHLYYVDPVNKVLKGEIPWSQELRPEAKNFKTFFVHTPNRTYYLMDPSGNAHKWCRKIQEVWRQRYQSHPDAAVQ
GSK3A (GSK3 alpha), sequence (P49840 whole entry): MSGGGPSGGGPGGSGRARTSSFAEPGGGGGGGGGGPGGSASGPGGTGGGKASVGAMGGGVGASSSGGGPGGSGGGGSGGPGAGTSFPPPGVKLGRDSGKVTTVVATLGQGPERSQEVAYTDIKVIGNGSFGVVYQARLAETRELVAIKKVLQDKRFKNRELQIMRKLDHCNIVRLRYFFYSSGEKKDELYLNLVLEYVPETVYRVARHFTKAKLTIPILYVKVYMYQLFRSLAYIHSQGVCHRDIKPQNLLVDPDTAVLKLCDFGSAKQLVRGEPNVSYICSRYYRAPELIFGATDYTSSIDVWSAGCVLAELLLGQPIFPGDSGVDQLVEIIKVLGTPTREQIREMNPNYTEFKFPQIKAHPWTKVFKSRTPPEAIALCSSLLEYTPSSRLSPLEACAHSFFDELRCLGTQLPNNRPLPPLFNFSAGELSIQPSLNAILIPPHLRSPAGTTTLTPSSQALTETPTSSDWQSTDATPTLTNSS
GSK3B (GSK3 beta), sequence (P49841 whole entry): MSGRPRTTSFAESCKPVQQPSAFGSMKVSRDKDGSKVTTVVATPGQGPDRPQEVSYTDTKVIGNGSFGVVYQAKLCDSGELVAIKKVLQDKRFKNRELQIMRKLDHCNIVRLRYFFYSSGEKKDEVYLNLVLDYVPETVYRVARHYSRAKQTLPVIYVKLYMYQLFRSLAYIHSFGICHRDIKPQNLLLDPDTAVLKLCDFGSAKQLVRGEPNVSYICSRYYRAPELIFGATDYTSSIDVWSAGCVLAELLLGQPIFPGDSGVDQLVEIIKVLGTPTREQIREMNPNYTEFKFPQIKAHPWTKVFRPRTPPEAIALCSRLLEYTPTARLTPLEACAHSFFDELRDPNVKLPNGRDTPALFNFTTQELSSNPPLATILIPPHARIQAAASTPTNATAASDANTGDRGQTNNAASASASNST
FYN, sequence (P06241 whole entry): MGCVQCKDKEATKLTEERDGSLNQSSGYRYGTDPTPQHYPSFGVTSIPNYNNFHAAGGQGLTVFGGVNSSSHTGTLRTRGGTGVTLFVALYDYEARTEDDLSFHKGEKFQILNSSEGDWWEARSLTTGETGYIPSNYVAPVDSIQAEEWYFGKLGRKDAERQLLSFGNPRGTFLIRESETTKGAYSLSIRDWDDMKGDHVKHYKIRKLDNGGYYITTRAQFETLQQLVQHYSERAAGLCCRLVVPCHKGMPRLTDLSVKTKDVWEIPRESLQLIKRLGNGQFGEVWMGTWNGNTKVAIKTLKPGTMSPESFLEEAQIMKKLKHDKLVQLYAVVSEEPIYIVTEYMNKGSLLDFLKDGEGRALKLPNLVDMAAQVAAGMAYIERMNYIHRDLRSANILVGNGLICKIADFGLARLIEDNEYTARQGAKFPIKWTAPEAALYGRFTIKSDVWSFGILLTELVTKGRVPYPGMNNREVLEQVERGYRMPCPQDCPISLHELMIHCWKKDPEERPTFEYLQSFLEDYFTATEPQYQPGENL

Broadly, the IC50 is the concentration that inhibits the measured activity by half. For `Cc1cc2c(cc1C)[n+](Cc1ccccc1Br)cn2Cc1ccc2c(c1)CCO2.[Br-]` [B591, 3-(2-bromobenzyl)-1-((2,3-dihydrobenzofuran-5-yl)methyl) -5,6-dimethyl-1H-benzo[d]imidazol-3-ium bromide], the IC50 in test [1], in test [2], in test [3], in test [4], in test [5] and in test [6] was more than 500 µM in each case. For the same molecule, the IC50 in test [7], in [8], in test [9], in test [10], in test [11] and in test [12] was more than 500 µM in each case. Moreover, the IC50 in test [13] is 448 µM; in test [14], more than 500 µM; in [15] it was more than 500 µM; in test [16] it was more than 500 µM; in test [17] it was more than 500 µM; in test [18] it was more than 500 µM. Besides, the “Size and number of primary mammospheres” value in test [19] was “reduced by B591 in a concentration-dependent manner”.

Source of the values: article PMC6756013, “B591, a novel specific pan-PI3K inhibitor, preferentially targets cancer stem cells” (Oncogene, 2019).
